# According to patent US20230065158A1, “OXABICYCLOHEPTANES FOR TREATMENT OF SMALL CELL LUNG CANCER” (Lixte Biotechnology, Inc., priority 2021, published 2023):
# Like-named read-outs stand apart in the source and are kept apart here.
# Key:
# [1] = test system: H446 cells; assay: Cell Counting Kit-8 cytotoxicity, H446
# From the text: To determine specific cytotoxicity, we used Cell Counting Kit-8 (Dojindo Molecular Technologies, Rockville, Md.) as previously described (50).
# [2] = test system: H69 cells; assay: Transendothelial extravasation assay through HUVEC monolayer, H69; type: cell-based; settings: after 20 h of drug treatment
# Protocol: (§1) FIGS. 3A-3H depict SCLC cell invasion through HUVEC monolayer. FIGS. 3A-3D: Graphical representation of H524/H69 cell ability to disrupt a confluent HUVEC monolayer using an electrical substrate-impedance sensing system. Arrows indicate time point when cells were added. Inserts show mean values and SD for each group after 20 h of drug treatment. After treatment, cell viability was counted using an Auto T4 Cell Counter (Nexcelom Cellometer). […] Whole cell Pt accumulation. Graphical representation of LB-100 effect on platinum uptake by SCLC cells. Cells were pretreated with LB-100 (H524—5 μM; H69—20 μM) overnight, then treated with carboplatin for one or four hours (H524—10 μM; H69—30 μM). Whole cell pellet was used for platinum (Pt) measurement. Values are normalized to total protein concentration. FIGS. 3E and 3F: Panels show mean values and SD of Pt accumulation for each group. […] Effect of LB-100 on PP2A expression and apoptosis regulatory proteins in H524 and H69 cells. […]
# (§2) To discern the effect of LB100 on cell invasion, we tested the ability of SCLC cells to invade though a layer of endothelial cells (ECs). Toward this end, we measured the trans-endothelial monolayer resistance using an electrical substrate-impedance sensing system (Applied Biophysics, Troy, N.Y., USA), as previously described (24). […]
# [3] = test system: H524 cells; assay: Transendothelial extravasation assay through HUVEC monolayer, H524; type: cell-based; settings: after 20 h of drug treatment
# Protocol: as §1, §2
# [4] = test system: H69 cells; assay: Seahorse XF Real-Time ATP rate assay, H69; type: cell-based; settings: LB-100 10 μM, carboplatin 10 μM
# [5] = test system: H524 cells; assay: Seahorse XF Real-Time ATP rate assay, H524; type: cell-based; settings: LB100 2.5 μM, carboplatin 4 μM
# Protocol: FIGS. 6A-6J depict ATP production rate in SCLC cells. FIG. 6A: H524 cells were treated with LB100 (2.5 μM), carboplatin (4 μM), or a combination, and ATP production rate was measured using the Agilent Seahorse XF Real Time ATP rate assay. mitoATP (mitochondrial) and glycoATP (glycolityc) rates were evaluated in H524 cells without and with drug treatments. […] FIG. 6B: Energetic map of H524 cells. After LB-100 and drug combination, cells became less glycolytic. FIGS. 6C-6E: The Agilent Seahorse XF pH sensor probe measures changes in the concentration of free protons, which corresponds to Extracellular Acidification Rate (ECAR). […] ATP level in cells was measured using the Agilent Seahorse XF Real Time ATP rate assay. […]
# To elucidate the effect of the drugs on the glycolytic metabolism of H524 cells, we analyzed the proton efflux rate (PER). PER is calculated by subtracting acidification produced from mitochondrial CO2 production (Mitochondrial-derived CO2 can partially hydrate in the extracellular medium, resulting in additional extracellular acidification beyond that contributed by glycolysis) from total acidification or protons efflux (from both glycolysis and mitochondrial) into the extra cellular medium. […] To confirm that LB100 also affected glycolytic pathway in LB100-resistant cells, we measured PER in these cells. […]
# [6] = test system: H524 and H69 cells; assay: Colony formation assay; type: cell-based; settings: both cell lines; H524/H69: LB-100 2.5/20 μM, carboplatin 4/20 μM, etoposide 3/30 μM
# Protocol: A Mann-Whitney U test was used for comparison between the normal and SCLC samples. FIG. 1B: IHC for PP2A was conducted on TMA tissue sections and images were captured at 4× or 20× using a 3D-Histech PANNORAMIC SCAN whole slide scanner (3D-Histech, Budapest, Hungary). […] TMAs were scored in normal (n=24) and tumor (n=79) cores on a scale from 0 (no staining/no protein expression) to 3+(strong staining/high protein expression). FIG. 1C: Summary bar graph of the average PP2A subunit staining. IHC staining intensity of normal and tumor cores. […] FIG. 1D: In order to compare the expression of PP2A subunits A and C, cell lysates from seven SCLC cell lines and HBEC 3KT (non-malignant cell line) were subjected to western blotting. FIG. 1E: PP2A activity was determined using a serine/threonine phosphatase activity assay (Millipore) after 24 h exposure to cantharidin (10 μM) and LB-100 (5 μM). […] The Cell Counting Kit-8 assay detected cell H524 and H69 cell viability. […] FIGS. 1I-1K: Graphs depict the mean+SEM of percent viability for cells (n=3). Colony formation assays were used to count the ability of H524 (FIGS. 11 and 1J) and H69 (FIGS. 1K and 1L) cells to form colonies. […] Representative images of colonies at 4× are shown under the graph (n=2).*p<0.05; **, p<0.01; *** p<0.001; ****, p<0.0001. Experiments were repeated in triplicate and representative data are shown.
Compound,"IC50 ([1]; Homo sapiens, NCI-H446, 72 h, read-out: Cytotoxicity IC50, H446)",% change of HUVEC barrier disruption (transmigration) [2],% change of HUVEC barrier disruption (transmigration) [3],drop of total ATP production rate [4],reduction of total ATP production rate compared to untreated cells [5],colony formation [6],"IC50 ([1]; read-out: Cytotoxicity IC50, H446, 72 hours)"
"C[NH+]1CCN(C(=O)C2C(C(=O)O)[C@H]3CC[C@@H]2O3)CC1 (stereo in doubt) [LB-100, 3-[(4-Methylpiperazin-1-yl)carbonyl]-7-oxabicyclo[2.2.1]heptane-2-carboxylic acid]",< 8 µM,12.3 ± 0.92%,16.9+2%,54%,73.7%,significantly reduced colony formation,–
"N.N.O=C([O-])C1(C(=O)[O-])CCC1.[Pt+2] [Carboplatin, reference compound]",–,14.9 ± 1.24%,18.2 ± 0.4%,12%,36.3%,significantly reduced colony formation,26.2 µM
